The first assay has as its target human PDE2A1 (Homo sapiens (Human), UniProt O00408). Description: PDE2 IMAP FP inhibition assay, human PDE2A1 (selectivity panel format). In kind it is biochemical. The conditions noted are these: @ 3 μM; Lab B; read-out: Human PDE2 % inhibition at a given concentration - Lab B. As to the method: Selectivity for PDE2, as compared to other PDE families, was assessed using the IMAP® technology. Human PDE10A2 enzyme was prepared from cytosolic fractions of transiently transfected HEK cells.
A Labcyte POD 810 (Labcyte, Sunnyvale, Calif.) was used to dispense 200 nL from each well of the titration plate to make eleven copies of the assay plate for each titration, one copy for each PDE enzyme. A solution of each enzyme (dilution from aliquots, sufficient to produce 20% substrate conversion) and a separate solution of FAM-labeled cAMP or FAM-labeled cGMP from Molecular Devices (Sunnyvale, Calif., product # R7506 or cGMP#R7508), at a final concentration of 50 nM were made in the assay buffer (10 mM Tris HCl, pH 7.2, 10 mM MgCl2, 0.05% NaN3 0.01% Tween-20, and 1 mM DTT). Note that the substrate for PDE2 is 50 nM FAM cAMP containing 1000 nM of cGMP. The enzyme and the substrate were then added to the assay plates in two consecutive additions of 10 μL and then shaken to mix. The reaction was allowed to proceed at room temperature for 60 minutes. A binding solution was then made from the kit components, comprised of 80% Solution A, 20% Solution B and binding reagent at a volume of 1/600 the total binding solution. The enzymatic reaction was stopped by addition of 60 μL of the binding solution to each well of the assay plate. The plates were sealed and shaken for 10 seconds. The plates were incubated at room temperature for one hour, then the parallel and perpendicular fluorescence was measured using a Tecan Genios Pro plate reader (Tecan, Switzerland). […] The intrinsic PDE2 inhibitory activity of a compound which may be used in accordance with the present invention may be determined by these assays. […]
human PDE2A1, sequence (O00408 other isoform, or with tags, fused parts or gaps): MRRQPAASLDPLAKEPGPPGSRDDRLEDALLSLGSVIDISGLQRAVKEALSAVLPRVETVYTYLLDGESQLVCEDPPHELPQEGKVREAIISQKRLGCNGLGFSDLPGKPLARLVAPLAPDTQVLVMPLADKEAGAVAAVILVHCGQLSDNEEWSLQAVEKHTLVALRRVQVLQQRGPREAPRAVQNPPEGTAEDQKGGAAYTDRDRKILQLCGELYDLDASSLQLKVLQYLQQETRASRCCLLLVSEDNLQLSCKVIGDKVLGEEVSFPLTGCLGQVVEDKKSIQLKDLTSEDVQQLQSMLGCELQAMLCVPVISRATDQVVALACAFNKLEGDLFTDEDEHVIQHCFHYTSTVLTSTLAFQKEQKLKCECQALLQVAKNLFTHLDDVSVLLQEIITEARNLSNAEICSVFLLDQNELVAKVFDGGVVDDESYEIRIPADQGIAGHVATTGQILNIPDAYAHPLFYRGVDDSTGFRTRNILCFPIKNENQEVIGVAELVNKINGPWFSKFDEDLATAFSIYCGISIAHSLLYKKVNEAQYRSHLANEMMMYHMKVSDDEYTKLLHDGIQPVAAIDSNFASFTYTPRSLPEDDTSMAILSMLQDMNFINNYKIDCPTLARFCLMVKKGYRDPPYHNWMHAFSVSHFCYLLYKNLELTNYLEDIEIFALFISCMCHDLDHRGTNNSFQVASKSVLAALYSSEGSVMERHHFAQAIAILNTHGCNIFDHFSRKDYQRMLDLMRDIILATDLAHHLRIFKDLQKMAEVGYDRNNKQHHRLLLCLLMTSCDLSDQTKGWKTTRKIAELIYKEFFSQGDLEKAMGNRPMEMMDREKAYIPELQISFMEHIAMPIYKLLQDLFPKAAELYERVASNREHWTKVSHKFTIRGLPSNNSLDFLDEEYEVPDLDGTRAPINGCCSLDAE
Regarding `CC(NC(=O)c1cc(=O)[nH]c(N(C)C)n1)c1ccc(C2(C(F)(F)F)CC2)cc1` (single isomer, unassigned) [Example 125, (S)- or (R)-2-(dimethylamino)-6-oxo-N-[1-{4-[1-(trifluoromethyl)cyclopropyl]phenyl}ethyl]-1,6-dihydropyrimidine-4-carboxamide], the inhibition at 3 µM came to 38%.

The same assay, now with this note: Lab B; read-out: Human PDE2 Ki (nM) - Lab B.
Turning to `CN(C)c1nc(C(=O)N[C@@H](c2ccc(S(F)(F)(F)(F)F)cc2)C(C)(C)O)cc(=O)[nH]1` [Example 211, 2-(dimethylamino)-N-{(1S)-2-hydroxy-2-methyl-1-[4-(pentafluoro-λ^6-sulfanyl)phenyl]propyl}-6-oxo-1,6-dihydropyrimidine-4-carboxamide], the Ki stood at 0.073 nM.
For `CN(C)c1nc(C(=O)N[C@H]2COCc3cc(C(F)(F)F)ccc32)cc(=O)[nH]1` [Example 198, 2-(dimethylamino)-6-oxo-N-[(4R)-7-(trifluoromethyl)-3,4-dihydro-1H-isochromen-4-yl]-1,6-dihydropyrimidine-4-carboxamide], the Ki amounted to 863 nM.
Take `CN(C)c1nc(C(=O)NC2(c3ccc(CC(F)(F)F)cc3)CC2)cc(=O)[nH]1` [Example 51, 2-(dimethylamino)-6-oxo-N-{1-[4-(2,2,2-trifluoroethyl)phenyl]cyclopropyl}-1,6-dihydropyrimidine-4-carboxamide]: the Ki was determined as 9.7 nM.
Regarding `CN(C)c1nc(C(=O)N[C@@H](c2ccc(OC(F)(F)F)cc2Cl)C(C)(C)O)cc(=O)[nH]1` [Example 210, N-{(1S)-1-[2-chloro-4-(trifluoromethoxy)phenyl]-2-hydroxy-2-methylpropyl}-2-(dimethylamino)-6-oxo-1,6-dihydropyrimidine-4-carboxamide], the Ki amounted to 0.54 nM.
Turning to `C[C@@H](NC(=O)c1cc(=O)[nH]c(N(C)C)n1)c1ccc(S(F)(F)(F)(F)F)cc1F` [Example 116, (R)-2-(dimethylamino)-N-(1-(4-(pentafluorothio)-2-fluorophenyl)ethyl)-6-oxo-1,6-dihydropyrimidine-4-carboxamide], the Ki is 749 nM.
Consider `CCC(C)(NC(=O)c1cc(=O)[nH]c(N(C)C)n1)c1ccc(C(F)(F)F)cc1F` (single isomer, unassigned) [Example 129, (S)- or (R)-2-(dimethylamino)-N-{1-[2-fluoro-4-(trifluoromethyl)phenyl]-1-methylpropyl}-6-oxo-1,6-dihydro-pyrimidine-4-carboxamide], for which the Ki stood at 5.5 nM.
In the case of `C[C@@H](NC(=O)c1cc(=O)[nH]c(N(C)C)n1)c1ccc(C(C)(F)F)cc1` [Example 74, N-{(1R)-1-[4-(1,1-difluoroethyl)phenyl]ethyl}-2-(dimelhylamino)-6-oxo-1,6-dihydropyrimidine-4-carboxamide], the Ki came to 3.9 nM.
Turning to `CN(C)c1nc(C(=O)NC2(c3ccc(C(F)(F)F)cc3)COC2)cc(=O)[nH]1` [Example 212, 2-(dimethylamino)-6-oxo-N-{3-[4-(trifluoromethyl)phenyl]oxetan-3-yl}-1,6-dihydropyrimidine-4-carboxamide], the Ki was 9.2 nM.
Same read-out and setting: the same measure for `CN(C)c1nc(C(=O)N[C@@H](c2ccc(OC(F)F)c(F)c2)C2CC2)cc(=O)[nH]1` [Example 53, N-{(R)-cyclopropyl[4-(difluoromethoxy)-3-fluorophenyl]methyl}-2-(dimethylamino)-6-oxo-1,6-dihydropyrimidine-4-carboxamide]: 4 nM.
On the same count and under the same terms, the same measure for `COCC1CCN(c2nc(C(=O)N[C@@H](c3ccc(C(F)(F)F)cc3)C(C)(C)C)cc(=O)[nH]2)C1` (single isomer, unassigned) [Example 177, (S)- or (R)-N-{(1R)-2,2-dimethyl-1-[4-(trifluoromethyl)phenyl]propyl}-2-[3-(methoxymethyl)pyrrolidin-1-yl]-6-oxo-1,6-dihydropyrimidine-4-carboxamide]: 0.46 nM; for `CC(NC(=O)c1cc(=O)[nH]c(N(C)C)n1)c1ccc(C2(C(F)(F)F)CC2)cc1` (single isomer, unassigned) [Example 126, (R)- or (S)-2-(dimethylamino)-6-oxo-N-[1-{4-[1-(trifluoromethyl)cyclopropyl]phenyl}ethyl]-1,6-dihydropyrimidine-4-carboxamide]: 16 nM.
Turning to `CC(C)[C@@H](NC(=O)c1cc(=O)[nH]c(N(C)C)n1)c1ccc(C(C)(F)F)cc1` [Example 75, N-{(1R)-1-[4-(1,1-difluoroethyl)phenyl]-2-methylpropyl}-2-(dimethylamino)-6-oxo-1,6-dihydropyrimidine-4-carboxamide], the Ki was 0.39 nM.
On to `CN(C)c1nc(C(=O)NC(c2ccccc2)c2ccc(C(F)(F)F)cc2)cc(=O)[nH]1` (centres unmarked) [Example 195, 2-(dimethylamino)-6-oxo-N-{phenyl[4-(trifluoromethyl)phenyl]methyl}-1,6-dihydropyrimidine-4-carboxamide], for which the Ki was found to be 81 nM.
Still for that read-out and setting: the same measure for `CC(NC(=O)c1cc(=O)[nH]c(N(C)C)n1)c1ccc(C(C)(C)C(F)(F)F)cc1` (single isomer, unassigned) [Example 122, (R)- or (S)-2-(dimethylamino)-6-oxo-N-{1-[4-(2,2,2-trifluoro-1,1-dimethylethyl)phenyl]ethyl}-1,6-dihydropyrimidine-4-carboxamide]: 34 nM.
Regarding `CN(C)c1nc(C(=O)NC2(c3ccc(C(F)(F)F)cc3)CCCC2)cc(=O)[nH]1` [Example 202, 2-(dimethylamino)-6-oxo-N-{1-[4-(trifluoromethyl)phenyl]cyclopentyl}-1,6-dihydro-pyrimidine-4-carboxamide], the Ki was found to be 5.4 nM.
Turning to `CC(=O)C(NC(=O)c1cc(=O)[nH]c(N(C)C)n1)c1ccc(C(F)(F)F)cc1` (centres unmarked) [Example 197, 2-(dimethylamino)-6-oxo-N-{2-oxo-1-[4-(trifluoromethyl)phenyl]propyl}-1,6-dihydropyrimidine-4-carboxamide], the Ki came to 3.6 nM.
The same measure, in the same setting: the same measure for `CN(C)c1nc(C(=O)N[C@@](C)(CO)c2ccc(C(F)(F)F)cc2Cl)cc(=O)[nH]1` [Example 209, N-{(1R)-1-[2-chloro-4-(trifluoromethyl)phenyl]-2-hydroxy-1-methylethyl}-2-(dimethylamino)-6-oxo-1,6-dihydropyrimidine-4-carboxamide]: 3.9 nM.
Still for that read-out and setting: the same measure for `CN(C)c1nc(C(=O)NC(c2ccc(C(F)(F)F)cc2)C(F)(F)F)cc(=O)[nH]1` (centres unmarked) [Example 207, 2-(dimethylamino)-6-oxo-N-{2,2,2-trifluoro-1-[4-(trifluoromethyl)phenyl]ethyl}-1,6-dihydropyrimidine-4-carboxamide]: 2.9 nM; for `COC(=O)C(NC(=O)c1cc(=O)[nH]c(N(C)C)n1)c1ccc(C(F)(F)F)cc1` (centres unmarked) [Example 205, methyl ({[2-(dimethylamino)-6-oxo-1,6-dihydropyrimidin-4-yl]carbonyl}amino)[4-(trifluoromethyl)phenyl]acetate]: 49 nM.

Usually Ki stands for the equilibrium dissociation constant of an inhibitor or competing ligand from its target.

The values are drawn from patent US10285989B2, “Pyrimidinone amide compounds as PDE2 inhibitors” (Merck Sharp & Dohme Corp., priority 2015, dated 2019).
